Reference: patent US20200148718A1, “PHARMACEUTICAL-GRADE 20-HYDROXYECDYSONE EXTRACT, USE OF SAME AND PREPARATION THEREOF” (BIOPHYTIS, priority 2017, published 2020)

Experiments:
[1] = tested on: nuclear receptors of the androgens or of the oestrogens; conditions: Lapenna et al., 2015; cited from earlier work
[2] = Bioavailability with respect to 20E; conditions: relative to 20E
[3] = pure molecule, data of the literature; cited from earlier work
[4] = Phase I clinical trial, single administrations (SAD), plasma pharmacokinetics; assay type: in vivo, humans; conditions: SAD cohorts, FIG. 3
Protocol: In the context of a phase I clinical trial, the plasma concentrations of BIO101 were measured after single administrations (SAD) of 100, 350, 700 and 1400 mg/day in individuals on an empty stomach. Repeated administrations (MAD) over 14 days were then carried out with a single daily dose of 350 mg or with two daily doses (morning and evening) of 350 mg and 450 mg. These administrations of BIO101 to various cohorts of volunteers (n=6) allowed to determine the main pharmacokinetic parameters of BIO101: Cmax (maximum plasma concentration of BIO101 after single or repeated), Cmin (minimum plasma concentration of BIO101 after single or repeated administration), Tmax (time necessary to reach the maximum plasma concentration of BIO101 after single or repeated administration), and AUC (Area under curve) synonymous with level of plasma exposure.
The average profile of the cohorts of the SAD is presented in FIG. 3 in which Y are young volunteers and O are volunteers, the age of which is between 65 and 85 years. […] The half-life of the 20E is approximately 3-4 hours.

For `C[C@]12C[C@H](O)[C@H](O)C[C@H]1C(=O)C=C1[C@@H]2CC[C@]2(C)C(=O)CC[C@@]12O` [rubrosterone, Rubrosterone], the “Interaction with nuclear receptors of the androgens or of the oestrogens” value (from here on “Interaction with nuclear receptors”) [1] is given as “capable of interacting”.

In the case of `CC(=O)[C@H]1CC[C@@]2(O)C3=CC(=O)[C@@H]4C[C@@H](O)[C@@H](O)C[C@]4(C)[C@H]3CC[C@]12C` [poststerone, Poststerone], the “Interaction with nuclear receptors” value [1] is given as “capable of interacting” and the “Bioavailability with respect to 20E” value [2] is given as “approximately twenty times better”.

In the case of `CC12CC(O)C(O)CC1C(=O)C=C1C2CCC2(C)C(O)CCC12O` (centres unmarked) [dihydrorubrosterone, Dihydrorubrosterone], the “Interaction with nuclear receptors” value [1] is listed as “capable of interacting”.

For `CC(C)(O)CC[C@@H](O)[C@](C)(O)[C@H]1CC[C@@]2(O)C3=CC(=O)[C@@H]4C[C@@H](O)[C@@H](O)C[C@]4(C)[C@H]3CC[C@]12C` [20E, 20-hydroxyecdysone], the Cytotoxicity [3] is given as “slightly cytotoxic”, the Bioavailability [4] is given as “low bioavailability” and the “Elimination of the active ingredient from plasma” value [4] is given as “almost totally disappears after 24 hours”. It also gave a Half-life [4] of 3 to 4 h.
